In publication PMC10970924 (Life, 2024):
Values joined by “and” are separate entries in the source; they are usually repeats but may differ in a detail not shown here. Equal values may be shown once.

Assays:
Colony formation assay = format: cell-based, mouse; conditions: mouse, C2C12 cells, 100 μM, read-out: C2C12 cells remaining viable
Protocol: (§1) Cells were cultured in a 24-well plate with 1 mL of DMEM nutrient medium for 24 h. […] The experiment was conducted in triplicate and in two or three independent repetitions. Only solvent was added to the control wells instead of the test compounds. Incubation with the drugs continued for three days, after which the grown colonies were washed with cold PBS solution and fixed in a fixing buffer (10% acetic acid, 10% methanol in distilled water) for 15 min. The colonies were stained with a 0.4% solution of crystal violet in 20% ethanol for 30 min and then washed 3 times with dH2O and analyzed under a microscope. The colonies were then dissolved in 10% acetic acid for 40 min on a shaker, and the absorbance of the lysate was read at 590 nm. Results were expressed as a percentage relative to the control, and a dose–response curve was plotted to determine the IC50 value.

C2C12 = assay: Colony formation assay; format: cell-based, mouse; conditions: Mus musculus, C2C12, 72 h, incubation three days, read-out: Inhibitory concentration IC50, C2C12
Protocol: as §1

MCF-7 = assay: Proliferation by impedance biosensor (RTCA DP Analyzer); format: cell-based, human; conditions: test concentration selected from biosensor data
Protocol: The effect of the test compounds on the proliferation of multiple cell lines was assessed in real time using the RTCA DP Analyzer (Roche, Basel, Switzerland). For this purpose, we used specialized E-plates containing wells similar in size to a standard 96-well plate, but their bottoms were covered with microelectrodes to assess impedance. When cells adhere to the microelectrodes, the impedance of the well changes, which allows us to calculate the cell index proportional to the cell number. In the experiment, cells were seeded in the E-plate at densities of 20,000 cells per milliliter (180 μL/well). At 24 h post-cell attachment, 20 μL of compounds at various test concentrations or solvent as a control were introduced, and cells were then cultured with real-time impedance registration for 5 days.

MCF-7 cells = assay: Comet assay; format: cell-based, human; set-up: Tail Length: unit not given here; conditions: for Olive Moment / Tail Area / Tail DNA % / Tail Intensity / Tail Length / Tail Moment: 3 days

For `COc1cccc2c1C(=O)c1c(O)c3c(c(O)c1C2=O)CC(O)(C(=O)CO)CC3OC1CC(NC(=O)/C=C/c2cnc(C)c3c2COC(C)(C)O3)C(O)C(C)O1` (stereo not drawn) [DOX-2, (E)-N-(3-hydroxy-2-methyl-6-((3,5,12-trihydroxy-3-(2-hydroxyacetyl)-10-methoxy-6,11-dioxo-1,2,3,4,6,11-hexahydrotetracen-1-yl)oxy)tetrahydro-2H-pyran-4-yl)-3-(2,2,8-trimethyl-4H-[1,3]dioxino[4,5-c]pyridin-5-yl)acrylamide], the viability at 3 days, 100 µM (Colony formation assay) was 30%, the IC50 (C2C12) was 810 ± 70 nM and the IC20 (MCF-7; Homo sapiens, MCF7) was 1500 nM. The “IC0, MCF-7” value (MCF-7) was 0.4 µM, the “IC4, MCF-7” value (MCF-7) was 0.7 µM and the “IC30, MCF-7” value (MCF-7) was 5 μM and 5 µM (IC30) μM. For the same molecule, the “IC60, MCF-7” value (MCF-7) was 10 μM and 10 µM (IC60) μM, the “IC70, MCF-7” value (MCF-7) was 20 μM and 20 µM (IC70) μM and the “Olive Moment” value (MCF-7 cells; MCF-7, 5 µM (IC30)) was 0.73. For the same molecule, the “Tail Area” value (MCF-7 cells; MCF-7, 5 µM (IC30)) was 1254, the “Tail DNA %” value (MCF-7 cells; MCF-7, 5 µM (IC30)) was 1.3% and the “Tail Intensity” value (MCF-7 cells; MCF-7, 5 µM (IC30)) was 10. For the same molecule, the “Tail Length” value (MCF-7 cells; MCF-7, 5 µM (IC30)) was 4.9, the “Tail Moment” value (MCF-7 cells; MCF-7, 5 µM (IC30)) was 0.14 and the “Olive Moment” value (MCF-7 cells; MCF-7, 10 µM (IC60)) was 1.42. The “Tail Area” value (MCF-7 cells; MCF-7, 10 µM (IC60)) was 637, the “Tail DNA %” value (MCF-7 cells; MCF-7, 10 µM (IC60)) was 5.1% and the “Tail Intensity” value (MCF-7 cells; MCF-7, 10 µM (IC60)) was 21. The “Tail Length” value (MCF-7 cells; MCF-7, 10 µM (IC60)) was 1.5, the “Tail Moment” value (MCF-7 cells; MCF-7, 10 µM (IC60)) was 0.21 and the “Olive Moment” value (MCF-7 cells; MCF-7, 20 µM (IC70)) was 1.01. The “Tail Area” value (MCF-7 cells; MCF-7, 20 µM (IC70)) was 876, the “Tail DNA %” value (MCF-7 cells; MCF-7, 20 µM (IC70)) was 1.9% and the “Tail Intensity” value (MCF-7 cells; MCF-7, 20 µM (IC70)) was 20. The “Tail Length” value (MCF-7 cells; MCF-7, 20 µM (IC70)) was 5.8, the “Tail Moment” value (MCF-7 cells; MCF-7, 20 µM (IC70)) was 0.25 and the “DNA breaks in the Comet assay (in words)” value (MCF-7 cells; MCF-7, 72 h) was “do not cause DNA breaks”.
